From paper PMC11638965, “Leveraging Dual-Ligase Recruitment to Enhance Protein Degradation via a Heterotrivalent Proteolysis Targeting Chimera” (Journal of the American Chemical Society, 2024)

Legend:
Type in all cases: cell-based
[1] = biological target: T1, BRD2 (Homo sapiens, UniProt P25440); assay: Live cell kinetic HiBiT degradation assay, HiBiT-BRD2 HEK293 cells; conditions: for DC50: HiBiT-BRD2 CRISPR knock-in HEK293 cells, live cell kinetic degradation, 24 h, read-out: Dmax 50 BRD2; for λmax BRD2 (degradation rate): HiBiT-BRD2 knock-in HEK293 cells
T1 construct: HiBiT, is appended to the N-terminus of endogenous BRD2, BRD3, and BRD4; endogenous in cells
Description: HEK293 HiBiT-BRD2 (LgBiT stable), HEK293 HiBiT-BRD3 (LgBiT stable), and HEK293 HiBiT-BRD4 (LgBiT stable) were created using CRISPR/Cas9 to insert at HiBiT tag at the N-terminal genomic loci of BRD2, BRD3, or BRD4 in a cell line stably expressing LgBiT protein as described previously.[23]
For kinetic degradation experiments, HEK293 HiBiT-BRD2, 3, or 4 (LgBiT stable) cells and HEK293 HiBiT-BRD4 (LgBiT) CRBN KO and VHL KO cells were plated at 20,000 cells/well in DMEM +10% FBS in white 96-well tissue culture plates and allowed to adhere overnight. The next day, media was removed and 90 μL of prewarmed CO2-independent medium (Gibco) containing Endurazine (Promega) at a 1:100 dilution from stock was added. Plates were incubated at 37 °C for 3 h to allow luminescence to equilibrate. A threefold dilution series of each PROTAC at 10x the desired final concentration was prepared (with the amount of DMSO in each treatment condition kept constant). After luminescence equilibration, a preread luminescence measurement was taken (prior to compound addition) to allow for baseline normalization to account for possible plating differences. Cells were then treated with 10 μL of the prepared PROTAC dilution series (in triplicate or quadruplicate). Treated plates were placed in a GloMax Discover luminometer (Promega) prewarmed to 37 °C and luminescence measurements were obtained every 7 min for 24 h. Kinetic degradation plots were obtained by first normalizing time course luminescence readings in each well to the preread measurement, then to the average value of the DMSO only control at each time point. Data was analyzed using GraphPad Prism (version 8) and excel. Dmax values were identified as the lowest luminescence reading in each well. Rate constant values were calculated using a one phase exponential decay Y = (Y0-Plateau) e(K*^X) + Plateau using Prism (Y0 constrained to 1). Dmax 50 values were calculated by plotting Dmax as a function of concentration, then fitting plots using the following equation: [drawing 1] to determine IC50.

[2] = biological target: T1, BRD2; assay: Western blot dose-response degradation in HEK293 cells; conditions: 6 h, mean ± S.E.M. of three experiments, values marked b mean ± S.D. of two
Description: (§1) HEK293 cells were obtained from ATCC. HEK293 was cultured in DMEM supplemented with 10% (v/v) fetal bovine serum (FBS), 1% […] and 1% (v/v) penicillin/streptomycin (pen/strep) at 37 °C, 5% CO2, and 95% humidity.
(§2) HEK293 cells were plated at a density of 5 × 10^5 cells per well of a six well plate a day prior to initiation of the experiment. Compounds were dissolved to a 10 mM concentrated stock solution in DMSO from which the compounds were further diluted to a working concentration range of 1 μM to 100 pM in DMEM and was subsequently added to cells at the initiation of the experiment. An additional vehicle control was added to cells alongside compound treatments. Cells were left to incubate with compound for 6 h at 37 °C, 5% CO2, and 95% humidity. Cells were then subsequently washed twice with PBS before being harvested in RIPA buffer supplemented with protease inhibitor cocktail and Benzonase Nuclease before being store at −20 °C.
(§3) Protein concentration was determined using the BCA assay. Samples were then prepared in LDS buffer containing 5% 1 M DTT and subsequently loaded onto NuPAGE 4–12% Bis-Tris Midi gels, followed by the transfer of the proteins onto nitrocellulose membranes. The membranes were blocked for 1 h prior to incubation with the primary antibodies using 5% Milk TBST. Membranes were incubated at 4 °C in either BRD4(Ab128874), BRD3(Ab50818), BRD2(Ab139690), VHL(CST#68547) and CRBN(CST#71810) primary antibody overnight. Following overnight incubation, the membranes were incubated with complementary IRDye 800CW secondary antibody and a hFAB Rhodamine Anti-Tubulin Primary Antibody (loading control) for 1 h and then imaged with a Bio-Rad imager. All Western blots were analyzed for band intensities using Image Lab (Bio-Rad). The data extracted from these blots were then plotted and analyzed using Prism (v. 10.2.2, GraphPad). Linear regression curve fitting was used to calculate pDC50 values. The standard deviation of the pDC50 was calculated for all compounds that had two independent repeats and the standard error of the mean calculated for all compounds that had three independent repeats. All Western blotting figures were developed in Adobe illustrator.

[3] = biological target: T2, BRD3 (Homo sapiens, UniProt Q15059); assay: as above; conditions: 6 h, mean ± S.E.M. of three experiments, values marked b mean ± S.D. of two
T2 construct: HiBiT, is appended to the N-terminus of endogenous BRD2, BRD3, and BRD4; endogenous in cells
Description: as §1, §2, §3

[4] = biological target: T3, BRD4^Long (Homo sapiens, UniProt O60885); assay: as above; conditions: for DC50: HEK293 cells, 6 h, Western blot, mean ± S.E.M. of three experiments, values marked b mean ± S.D. of two
T3 construct: Western blot data for BET, CRBN and VHL protein levels; endogenous in cells; host or cells: HEK293 (ATCC)
Description: as §1, §2, §3

[5] = biological target: T4, BRD4^Short (Homo sapiens, UniProt O60885); assay: as above; conditions: 6 h, mean ± S.E.M. of three experiments, values marked b mean ± S.D. of two
T4 construct: Western blot data for BET, CRBN and VHL protein levels; endogenous in cells; host or cells: HEK293 (ATCC)
Description: as §1, §2, §3

[6] = biological target: CRBN (Homo sapiens, UniProt Q96SW2); assay: as above; design: Western blot data for BET, CRBN and VHL protein levels; endogenous in cells; host or cells: HEK293 (ATCC); conditions: for DC50: HEK293 cells, 6 h, Western blot, mean ± S.E.M. of three experiments, values marked b mean ± S.D. of two; for fold increase in CRBN degradation vs nonmethylated matched pair: 27 vs 26, 24 vs 23
Description: as §1, §2, §3

T1 sequence (P25440 whole entry): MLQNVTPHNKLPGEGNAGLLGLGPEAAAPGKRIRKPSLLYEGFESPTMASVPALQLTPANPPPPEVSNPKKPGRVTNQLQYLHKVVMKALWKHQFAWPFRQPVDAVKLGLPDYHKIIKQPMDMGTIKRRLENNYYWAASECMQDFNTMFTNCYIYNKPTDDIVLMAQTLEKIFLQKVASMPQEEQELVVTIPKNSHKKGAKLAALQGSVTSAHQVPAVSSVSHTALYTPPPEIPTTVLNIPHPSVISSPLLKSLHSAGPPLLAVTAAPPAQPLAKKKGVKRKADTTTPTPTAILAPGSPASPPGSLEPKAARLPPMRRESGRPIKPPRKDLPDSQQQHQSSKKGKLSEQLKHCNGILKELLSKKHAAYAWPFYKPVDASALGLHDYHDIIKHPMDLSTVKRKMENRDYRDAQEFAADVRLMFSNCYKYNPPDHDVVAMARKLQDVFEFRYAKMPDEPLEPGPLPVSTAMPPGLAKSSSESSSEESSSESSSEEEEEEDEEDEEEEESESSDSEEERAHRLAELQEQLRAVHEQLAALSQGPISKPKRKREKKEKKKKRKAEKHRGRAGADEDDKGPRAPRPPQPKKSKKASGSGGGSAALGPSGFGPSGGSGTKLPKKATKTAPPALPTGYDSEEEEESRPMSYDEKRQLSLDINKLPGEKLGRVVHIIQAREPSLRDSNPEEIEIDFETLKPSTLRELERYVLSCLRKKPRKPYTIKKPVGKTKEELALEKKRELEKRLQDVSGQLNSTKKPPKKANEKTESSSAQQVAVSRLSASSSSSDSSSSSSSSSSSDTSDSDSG
T2 sequence (Q15059 whole entry): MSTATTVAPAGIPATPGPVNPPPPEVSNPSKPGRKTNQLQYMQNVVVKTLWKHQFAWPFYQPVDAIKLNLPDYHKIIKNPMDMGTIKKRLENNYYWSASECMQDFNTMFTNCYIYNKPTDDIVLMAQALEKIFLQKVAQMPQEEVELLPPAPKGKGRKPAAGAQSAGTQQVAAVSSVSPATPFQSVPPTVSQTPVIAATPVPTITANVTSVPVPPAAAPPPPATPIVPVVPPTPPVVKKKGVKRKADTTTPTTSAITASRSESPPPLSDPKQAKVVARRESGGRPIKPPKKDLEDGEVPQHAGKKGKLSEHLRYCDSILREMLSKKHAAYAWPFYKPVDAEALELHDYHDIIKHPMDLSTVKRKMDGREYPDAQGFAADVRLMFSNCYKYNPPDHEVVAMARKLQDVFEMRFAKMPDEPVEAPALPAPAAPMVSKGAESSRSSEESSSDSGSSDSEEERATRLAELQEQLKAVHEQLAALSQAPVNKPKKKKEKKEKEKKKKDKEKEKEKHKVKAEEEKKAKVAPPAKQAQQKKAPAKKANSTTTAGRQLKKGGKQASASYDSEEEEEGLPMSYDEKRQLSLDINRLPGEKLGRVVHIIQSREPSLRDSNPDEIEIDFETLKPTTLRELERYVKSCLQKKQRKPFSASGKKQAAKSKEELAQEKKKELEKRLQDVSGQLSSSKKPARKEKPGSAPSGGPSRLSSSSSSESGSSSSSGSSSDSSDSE
CRBN, sequence (Q96SW2 whole entry): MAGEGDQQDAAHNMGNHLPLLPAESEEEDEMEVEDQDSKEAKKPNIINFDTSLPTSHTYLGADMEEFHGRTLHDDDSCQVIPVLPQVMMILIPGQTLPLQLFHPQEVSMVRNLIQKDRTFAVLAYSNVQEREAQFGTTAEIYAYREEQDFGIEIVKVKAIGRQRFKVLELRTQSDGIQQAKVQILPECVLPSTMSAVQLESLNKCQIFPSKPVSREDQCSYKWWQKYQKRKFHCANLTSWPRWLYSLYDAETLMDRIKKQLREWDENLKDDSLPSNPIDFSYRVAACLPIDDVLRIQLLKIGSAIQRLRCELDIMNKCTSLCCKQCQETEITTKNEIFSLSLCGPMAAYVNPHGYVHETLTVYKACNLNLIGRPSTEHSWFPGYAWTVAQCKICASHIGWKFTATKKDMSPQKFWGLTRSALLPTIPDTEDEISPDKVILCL

With Cc1ncsc1-c1ccc(CNC(=O)[C@@H]2C[C@@H](O)CN2C(=O)[C@@H](NC(=O)COCC(C)(COCCOCCOCCNc2cc3c(cc2F)C(=O)N(C2CCC(=O)NC2=O)C3=O)COCCOCCOC(=O)C[C@@H]2N=C(c3ccc(Cl)cc3)c3c(sc(C)c3C)-n3c(C)nnc32)C(C)(C)C)cc1 (mixture of isomers) [AB3065 (28), (14S)-8-((2-(2-(2-((2-(2,6-dioxopiperidin-3-yl)-6-fluoro-1,3-dioxoisoindolin-5-yl)amino)ethoxy)ethoxy)ethoxy)methyl)-14-((2S,4R)-4-hydroxy-2-((4-(4-methylthiazol-5-yl)benzyl)carbamoyl)pyrrolidine-1-carbonyl)-8,15,15-trimethyl-12-oxo-3,6,10-trioxa-13-azahexadecyl 2-((S)-4-(4-chlorophenyl)-2,3,9-trimethyl-6H-thieno[3,2-f][1,2,4]triazolo[4,3-a][1,4]diazepin-6-yl)acetate] the DC50 [1] was 23 nM, the “λmax BRD2 (degradation rate)” value [1] was 1.46 h⁻¹ and the DC50 [2] was 21 ± 5.4 nM. It also gave a DC50 [3] of 14 ± 7.5 nM, a DC50 [4] of 10 ± 4.4 nM and a DC50 [5] of 12 ± 5.8 nM. It also gave a DC50 [6] of 310 ± 200 nM.
With Cc1ncsc1-c1ccc([C@H](C)NC(=O)[C@@H]2C[C@@H](O)CN2C(=O)[C@@H](NC(=O)COCC(C)(COCCOCCOCCNc2cccc3c2C(=O)N(C2CCC(=O)NC2=O)C3=O)COCCOCCOCCOC(=O)C[C@@H]2N=C(c3ccc(Cl)cc3)c3c(sc(C)c3C)-n3c(C)nnc32)C(C)(C)C)cc1 (mixture of isomers) [AB3066 (24), (17S)-11-((2-(2-(2-((2-(2,6-dioxopiperidin-3-yl)-1,3-dioxoisoindolin-4-yl)amino)ethoxy)ethoxy)ethoxy)methyl)-17-((2S,4R)-4-hydroxy-2-(((S)-1-(4-(4-methylthiazol-5-yl)phenyl)ethyl)carbamoyl)pyrrolidine-1-carbonyl)-11,18,18-trimethyl-15-oxo-3,6,9,13-tetraoxa-16-azanonadecyl 2-((S)-4-(4-chlorophenyl)-2,3,9-trimethyl-6H-thieno[3,2-f][1,2,4]triazolo[4,3-a][1,4]diazepin-6-yl)acetate] the DC50 [1] was 7.3 nM, the “λmax BRD2 (degradation rate)” value [1] was 2.04 h⁻¹ and the DC50 [2] was 43 ± 1.1 nM. The DC50 [3] was 8.9 ± 1.5 nM, the DC50 [4] was 6.8 ± 1.3 nM and the DC50 [5] was 5.9 ± 2.3 nM. The “fold increase in CRBN degradation vs nonmethylated matched pair” value ([6]; DC50, HEK293 Western blot) was about 2.6 fold and the DC50 [6] was 81 ± 11 nM.
In the case of Cc1ncsc1-c1ccc([C@H](C)NC(=O)[C@@H]2C[C@@H](O)CN2C(=O)[C@@H](NC(=O)COCC(C)(COCCOCCOCCNc2cc3c(cc2F)C(=O)N(C2CCC(=O)NC2=O)C3=O)COCCOCCOCCOC(=O)C[C@@H]2N=C(c3ccc(Cl)cc3)c3c(sc(C)c3C)-n3c(C)nnc32)C(C)(C)C)cc1 (mixture of isomers) [AB3067 (27), (17S)-11-((2-(2-(2-((2-(2,6-dioxopiperidin-3-yl)-6-fluoro-1,3-dioxoisoindolin-5-yl)amino)ethoxy)ethoxy)ethoxy)methyl)-17-((2S,4R)-4-hydroxy-2-(((S)-1-(4-(4-methylthiazol-5-yl)phenyl)ethyl)carbamoyl)pyrrolidine-1-carbonyl)-11,18,18-trimethyl-15-oxo-3,6,9,13-tetraoxa-16-azanonadecyl 2-((S)-4-(4-chlorophenyl)-2,3,9-trimethyl-6H-thieno[3,2-f][1,2,4]triazolo[4,3-a][1,4]diazepin-6-yl)acetate], the DC50 [1] is reported as 2 nM, the “λmax BRD2 (degradation rate)” value [1] is reported as 2.37 h⁻¹ and the DC50 [2] is reported as 15 ± 2.1 nM. The DC50 [3] was 1.6 ± 0.3 nM, the DC50 [4] was 2.3 ± 0.4 nM and the DC50 [5] was 2.1 ± 0.3 nM. For the same compound, the “fold increase in CRBN degradation vs nonmethylated matched pair” value ([6]; DC50, HEK293 Western blot) was about 2.6 fold and the DC50 [6] was 75 ± 14 nM.
For Cc1ncsc1-c1ccc(CNC(=O)[C@@H]2C[C@@H](O)CN2C(=O)[C@@H](NC(=O)COCC(C)(COCCOCCNc2cc3c(cc2F)C(=O)N(C2CCC(=O)NC2=O)C3=O)COCCOCCOC(=O)C[C@@H]2N=C(c3ccc(Cl)cc3)c3c(sc(C)c3C)-n3c(C)nnc32)C(C)(C)C)cc1 (mixture of isomers) [AB3125 (30), (14S)-8-((2-(2-((2-(2,6-dioxopiperidin-3-yl)-6-fluoro-1,3-dioxoisoindolin-5-yl)amino)ethoxy)ethoxy)methyl)-14-((2S,4R)-4-hydroxy-2-((4-(4-methylthiazol-5-yl)benzyl)carbamoyl)pyrrolidine-1-carbonyl)-8,15,15-trimethyl-12-oxo-3,6,10-trioxa-13-azahexadecyl 2-((S)-4-(4-chlorophenyl)-2,3,9-trimethyl-6H-thieno[3,2-f][1,2,4]triazolo[4,3-a][1,4]diazepin-6-yl)acetate], the DC50 [1] was 31 nM, the “λmax BRD2 (degradation rate)” value [1] was 2.63 h⁻¹ and the DC50 [2] was 19 ± 7.2 nM. For the same compound, the DC50 [3] was 6.4 ± 0.8 nM, the “fold decrease in BRD4^Long degradation vs 26” value ([4]; DC50, HEK293 Western blot) was 5.3 fold and the DC50 [4] was 4 ± 2.1 nM. For the same compound, the DC50 [5] was 4.4 ± 2.4 nM, the “fold decrease in CRBN degradation vs 26” value ([6]; DC50, HEK293 Western blot) was 4.5 fold and the DC50 [6] was 900 ± 720 nM.
In the case of Cc1ncsc1-c1ccc(CNC(=O)[C@@H]2C[C@@H](O)CN2C(=O)[C@@H](NC(=O)COCC(C)(COCCOCCNc2cc3c(cc2F)C(=O)N(C2CCC(=O)NC2=O)C3=O)COCCOCCOCCOC(=O)C[C@@H]2N=C(c3ccc(Cl)cc3)c3c(sc(C)c3C)-n3c(C)nnc32)C(C)(C)C)cc1 (mixture of isomers) [AB3126 (29), (17S)-11-((2-(2-((2-(2,6-dioxopiperidin-3-yl)-6-fluoro-1,3-dioxoisoindolin-5-yl)amino)ethoxy)ethoxy)methyl)-17-((2S,4R)-4-hydroxy-2-((4-(4-methylthiazol-5-yl)benzyl)carbamoyl)pyrrolidine-1-carbonyl)-11,18,18-trimethyl-15-oxo-3,6,9,13-tetraoxa-16-azanonadecyl 2-((S)-4-(4-chlorophenyl)-2,3,9-trimethyl-6H-thieno[3,2-f][1,2,4]triazolo[4,3-a][1,4]diazepin-6-yl)acetate], the DC50 [1] is reported as 18 nM, the “λmax BRD2 (degradation rate)” value [1] is reported as 2.35 h⁻¹ and the DC50 [2] is reported as 33 ± 34 nM. It also gave a DC50 [3] of 6.6 ± 0.3 nM, a DC50 [4] of 5 ± 5.3 nM and a DC50 [5] of 5.3 ± 5.5 nM. It also gave a DC50 [6] of 150 ± 190 nM.
